Patent publication US20260327317A1, “PROTEASE-CLEAVABLE MOIETIES AND METHODS OF USE THEREOF” (CytomX Therapeutics, Inc., priority 2022, published 2026)
Entries after “also recorded” stand apart in the source; their conditions may differ.

Assays:
[1] = system: plasmin; experiment: In vitro cleavability of activatable antibodies by plasmin (capillary electrophoresis); assay type: biochemical, human; design: key to Cleavability (%) Plasmin (4 h): “—” indicates below limit of quantification; details: role: substrate; for Cleavability (%) Plasmin (4 h): 500 nM activatable antibody, 10 nM plasmin, 37° C; for extent of cleavage by plasmin vs control CM 2001, in words: 4 h, compared to control CM 2001
[2] = system: MT-SP1; experiment: In vitro cleavability of activatable antibodies by MT-SP1 (capillary electrophoresis); assay type: biochemical, human; details: role: substrate; for Cleavability (%) MT-SP1 (1.5h) / Cleavability (%) MT-SP1 (4 h): 500 nM activatable antibody, 37° C, pH 7.4; for Cleavability (%) MT-SP1 (1.5h): 10 nM MT-SP1, 1.5 h; for Cleavability (%) MT-SP1 (4 h): 10 nM MT-SP1, 4 h; for extent of cleavage by MT-SP1 (matriptase) vs control CM 2001, in words: compared to control CM 2001
[3] = system: human bone marrow aspirates; experiment: In situ stability in human bone marrow aspirates; details: 20 μg/mL, 37° C, 21 or 24 hours, N=2 donors, normalized to CM 2001
Method: The study provided herein evaluates the in situ stability of activatable antibodies of the present disclosure with the CM 6006 (SEQ ID NO: 7) by human bone marrow aspirates. Fresh human bone marrow aspirates from healthy donors were purchased from Stemcell Technology Inc. (Catalog No. 70502) and AllCells Inc. and were processed to lyse red blood cells and washed 5 times with buffer or serum-free media. […] An equal volume of AF647-labeled c225 activatable antibodies prepared at 40 μg/mL in serum-free RPMI media were then added to form a mixture and incubated at a final concentration of 20 μg/mL at 37° C. for 21 or 24 hours. Cells were pelleted through centrifugation for 5 min at 300×g. Supernatants were collected from each incubated mixture and transferred into a well of a 96-well PCR plate for assay by capillary electrophoresis. Each supernatant sample was mixed with Pico Sample Buffer (Perkin Elmer) containing 2-beta-mercaptoethanol at four parts sample and one part of Pico Sample Buffer and then heated at 95° C. for 10 minutes. Substrate cleavage was measured by capillary electrophoresis using a LabChip® GXII Touch™ system (Perkin Elmer) with the HT Pico Protein Express 100 protocol (Perkin Elmer). Protein Express Assay LabChips (Perkin Elmer #760499) were set up using the protocol of the Protein Pico Assay Reagent Kit (Perkin Elmer #760498).

[4] = system: TNBC tumor; experiment: Quantitative zymography (QZ) assay, patient-derived tumor sample; design: species or system human (patient-derived); details: 20 μg/mL, 37° C, 48 hours
Method: (§1) Protease activities in patient-derived tumor samples were evaluated using the quantitative zymography (QZ) assay. […] Tumor tissue samples from two head and neck cancer patients and one triple negative breast cancer (TNBC) patient were analyzed utilizing activatable antibodies of the present disclosure with the CM 6006 (SEQ ID NO: 7).
(§2) The protease activity in the tumor sections of 12 μm thickness was assessed. […] An equal volume of AF647-labeled c225 activatable antibodies prepared at 40 μg/mL in QZ buffer were then added directly onto the tissue containing the buffer to form a mixture and incubated at a final concentration of 20 μg/mL in a humidified chamber at 37° C. for 48 hours.
(§3) Following 48 hours of incubation, supernatants were collected from each incubated mixture and transferred into a well of a 96-well PCR plate for assay by capillary electrophoresis. Each supernatant sample was mixed with Pico Sample Buffer (Perkin Elmer) containing 2-beta-mercaptoethanol at four parts sample and one part of Pico Sample Buffer and then heated at 95° C. for 10 minutes. The composition of each supernatant sample was then assessed using the LabChip GXII Touch (Perkin Elmer) with the HT Pico Protein Express 100 protocol (Perkin Elmer). Protein Express Assay LabChips (Perkin Elmer #760499) were set up using the protocol of the Protein Pico Assay Reagent Kit (Perkin Elmer #760498).

[5] = system: head and neck tumor B; experiment: as above; design: species or system human (patient-derived); details: 20 μg/mL, 37° C, 48 hours
Method: as §1, §2, §3

[6] = system: head and neck tumor A; experiment: as above; design: species or system human (patient-derived); details: 20 μg/mL, 37° C, 48 hours
Method: as §1, §2, §3

[7] = In vivo stability of activatable antibodies in mice (cleaved activatable antibody in plasma); details: 10 mg/kg intraperitoneal; for In Vivo % Activation (nu/nu, day 7): day 7, plasma; for in vivo stability vs control, in words: nu/nu mice, day 7, compared to control CM 2001
[8] = system: TMPRSS11; experiment: In vitro cleavability of activatable antibodies by TMPRSS11 (capillary electrophoresis); assay type: biochemical, human; details: role: substrate; for Cleavability (%) TMPRSS11 (4 h): 500 nM activatable antibody, 10 nM TMPRSS11D, 37° C, pH 7.4; for extent of cleavage by TMPRSS11 vs control CM 2001, in words: 4 h, compared to control CM 2001
[9] = system: H292 (human lung cancer cell line) xenograft tumors; experiment: In vivo efficacy in mouse H292 xenograft model; design: species or system human tumor cells in female nu/nu mice; details: 9 mg/kg intraperitoneal on day 1; nu/nu mice
Method: The study provided herein evaluates the in vivo efficacy of activatable antibodies of the present disclosure with CM 6006 (SEQ ID NO: 7) using a mouse H292 (human lung cancer cell line) xenograft model.
(§4) In this study, H292 (human lung cancer-derived cell line) subcutaneous xenograft tumors in female nu/nu mice of 6-8 weeks of age were grown to an average volume of 117-215 mm^3. […] The mice were then randomized into groups of 8 mice each and each group was dosed intraperitoneally on day 1 with 9 mg/kg of the indicated test article.

[10] = system: H292 (human lung cancer cell line) xenograft tumors; experiment: Intra-tumoral activation assay in H292 xenograft tumors; assay type: in vivo, human tumor cells in female nu/nu mice; details: tumors collected 7 days after dosing, 9 mg/kg intraperitoneal
Method: as §4
Tumors were collected from the mice 7 days after dosing. The tumor tissue was lysed with immunoprecipitation buffer (Pierce) containing HALT protease inhibitor cocktail (Thermo Fisher) and EDTA and lysed using the Barocycler (Pressure Bioscience).

[11] = system: MT-SP1; experiment: Cleavability kinetics (kcat/KM) of CMs in activatable antibodies with MT-SP1; assay type: biochemical, human; details: role: substrate; compared to control CMs 2001 and 0001

| Substance | Cleavability (%) Plasmin (4 h) ([1]; pH 7.4) [%] | extent of cleavage by plasmin vs control CM 2001, in words [1] | Cleavability (%) MT-SP1 (1.5h) [2] [%] | Cleavability (%) MT-SP1 (4 h) [2] [%] | cleavability percentage for MT-SP1 ([2]; 1.5 h, lower bound stated in text) | extent of cleavage by MT-SP1 (matriptase) vs control CM 2001, in words [2] | resistance to cleavage in situ in bone marrow, in words [3] | light chain (LC) activation, in words [4] | light chain (LC) activation, in words [5] | light chain (LC) activation, in words [6] | In Vivo % Activation (nu/nu, day 7) [7] [%] | in vivo stability vs control, in words [7] | Cleavability (%) TMPRSS11 (4 h) [8] [%] | extent of cleavage by TMPRSS11 vs control CM 2001, in words [8] | in vivo efficacy (tumor volume), in words [9] | intra-tumoral activation, in words [10] | cleavability from kcat/KM results vs control CMs, in words [11] | Cleavability (%) Plasmin (4 h) ([1]; below limit of quantification) |
| --- | --- | --- | --- | --- | --- | --- | --- | --- | --- | --- | --- | --- | --- | --- | --- | --- | --- | --- |
| SDHQSRS [compound 6006] | 15.1 | to a greater extent than the control CM 2001 | 33.1 | 74.1 | greater than 30% | substantially cleaved by MT-SP1; also recorded: to a greater extent than the control CM 2001 | resistance to cleavage in situ in the bone marrow as compared to activatable antibodies with control CMs 2001 (SEQ ID NO: 78), 5007 (APRSALAHGLE; SEQ ID NO: 80) (WO2020118109) and 3001 | Increased LC activation is observed in the activatable antibody with CM 6006 (SEQ ID NO: 7) compared to the activatable antibody with the control CM 3001; also recorded: Comparable levels of LC activation | Comparable levels of LC activation | Increased LC activation is observed in the activatable antibody with CM 6006 (SEQ ID NO: 7) compared to the activatable antibody with the control CM 3001; also recorded: Comparable levels of LC activation | 18.4 | higher in vivo stability than the activatable antibody with the control CM 2001 | 100.0 | to a greater extent than the control CM 2001 | in vivo efficacy that is comparable with the activatable antibody with the control CM 2001 (SEQ ID NO: 78) and similar to cetuximab | cleaved by proteases present in the tumor resulting in activation of the antibody |  |  |
| HQSRS [compound 6001] | 11.1 | to a greater extent than the control CM 2001 | 56.9 | 100.0 |  | substantially cleaved by MT-SP1; also recorded: to a greater extent than the control CM 2001 |  |  |  |  | 24.2 | higher in vivo stability than the activatable antibody with the control CM 2001 | 100.0 | to a greater extent than the control CM 2001 |  |  | higher cleavability by at least MT-SP1 than control CMs 2001 (SEQ ID NO: 78) and 0001 (SEQ ID NO: 77) |  |
| APRSALAHGLF [compound 5007, reference compound] |  |  |  |  |  |  |  | Comparable levels of LC activation | Comparable levels of LC activation | Comparable levels of LC activation |  |  |  |  |  |  |  |  |
| LSGRSDNH [compound 0001, reference compound] |  |  |  |  |  |  |  |  |  |  | 20 |  |  |  |  |  |  |  |
| ISSGLLSGRSDNH [compound 2001, reference compound] |  |  | 10.9 | 19.4 |  |  |  |  |  |  | 32.1 |  | 9.8 |  |  |  |  | — |
